# Test results taken from patent US8921398B2 (Boehringer Ingelheim International GmbH, priority 2011, dated 2014).
# Target: T1, human GPR119 (Homo sapiens, UniProt Q8TDV5)
# T1 construct: expression vector for human GPR119 cDNA (Acc. No. NP_848566); expressed in transfected cells
# T1 sequence (Q8TDV5 1-335): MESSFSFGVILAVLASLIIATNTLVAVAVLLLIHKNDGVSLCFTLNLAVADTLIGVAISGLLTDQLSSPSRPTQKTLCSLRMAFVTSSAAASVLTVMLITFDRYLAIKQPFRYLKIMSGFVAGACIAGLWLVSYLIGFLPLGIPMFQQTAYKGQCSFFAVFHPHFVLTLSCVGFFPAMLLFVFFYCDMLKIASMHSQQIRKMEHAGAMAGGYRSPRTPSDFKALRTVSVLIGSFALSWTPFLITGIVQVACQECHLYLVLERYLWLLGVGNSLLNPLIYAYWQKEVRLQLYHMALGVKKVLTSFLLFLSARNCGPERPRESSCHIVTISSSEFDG
# Test: AlphaScreen cAMP assay in MIN6 cells stably transfected with human GPR119
# Assay type: cell-based
# Conditions: Min-6/hGPR119 cells, 45 minutes incubation at room temperature
# Protocol: The compounds of formula I according to the invention modulate the activity of the G-protein-coupled receptor GPR119. The effect of the compounds on the activation of GPR119 and on the stimulation of intracellular cAMP concentration is determined using the AlphaScreen cAMP Assay Kit (Cat.No.#6760625R) made by PerkinElmer.
# MIN6 cells [Miyazaki J et al. Endocrinology. 1990 July; 127(1):126-32] are stably transfected with an expression vector for human GPR119 cDNA (Acc. No. NP_848566). Min-6/hGPR119 cells are cultured in DMEM, 10% FBS, 50 μM β-mercaptoethanol, 0.3 mg/mL Geniticin, 2 mM GlutaMAX at 37° C. 5% CO2. For the assay, the cells are seeded in Optiplates (white, 384-well, 160W-barcoded, TC, sterile with lid, Cat.No.#6007688 (Perkin Elmer); 10000 cells/well; 50 μl). The plates covered with lids are then incubated for 24 hours at 37° C./5% CO2. After the medium is aspirated from the wells completely, 10 μl of the test compound are added, the compounds are diluted using stimulating buffer (140 mM NaCl, 3.6 mM KCl, 0.5 mM NaH2PO4, 0.5 mM MgSO4, 1.5 mM CaCl2, 10 mM Hepes, 5 mM NaHCO3; pH 7.4. 0.5 mM IBMX and 0.1% BSA, the final DMSO concentration is 1%). After 45 minutes incubation at room temperature (approx. 20° C.), the cAMP concentrations are determined using the AlphaScreen cAMP Assay Kit (Cat.No.#6760625R from PerkinElmer).
row,Compound,EC50 [µM]
1,"CCc1cnc(N2CCC(N(C(=O)c3ccc(-c4cnco4)nc3)C3CC3)CC2)cn1 [Example 37, N-Cyclopropyl-N-[1-(5-ethyl-pyrazin-2-yl)-piperidin-4-yl]-6-oxazol-5-yl-nicotinamide]",0.059
2,"CCc1cnc(N2CCC(N(C(=O)c3cnc(-c4cnco4)cn3)C3CC3)CC2)nc1 [Example 38, 5-Oxazol-5-yl-pyrazine-2-carboxylic acid cyclopropyl-[1-(5-ethyl-pyrimidin-2-yl)-piperidin-4-yl]-amide]",0.063
3,"CCCc1noc(N2CCC(N(C(=O)c3cnc(-c4cnco4)cn3)C3CC3)CC2)n1 [Example 39, 5-Oxazol-5-yl-pyrazine-2-carboxylic acid cyclopropyl-[1-(3-propyl-[1,2,4]oxadiazol-5-yl)-piperidin-4-yl]-amide]",0.067

# Continued, values first:
row,EC50 [µM],Compound
1,0.089,"CCCc1noc(N2CCC(N(C(=O)c3ccc(-c4cnco4)nc3)C3CC3)CC2)n1 [Example 40, N-Cyclopropyl-6-oxazol-5-yl-N-[1-(3-propyl-[1,2,4]oxadiazol-5-yl)-piperidin-4-yl]-nicotinamide]"
2,0.159,"Cc1cnc(N2CCC(N(C(=O)c3ccc(-c4cnco4)nc3)C3CC3)CC2)nc1 [Example 41, N-Cyclopropyl-N-[1-(5-methyl-pyrimidin-2-yl)-piperidin-4-yl]-6-oxazol-5-yl-nicotinamide]"
3,0.231,"Cc1cnc(N2CCC(N(C(=O)c3ccc(-c4cnco4)nc3)C3CC3)CC2)cn1 [Example 42, N-Cyclopropyl-N-[1-(5-methyl-pyrazin-2-yl)-piperidin-4-yl]-6-oxazol-5-yl-nicotinamide]"
